Five compounds from publication PMC12348105, “Pinene-Based Chiral Bipyridine Ligands Drive Potent Antibacterial Activity in Rhenium(I) Complexes” (Molecules, 2025) can be followed below.

Broadly, the MIC is the least concentration at which growth counts as inhibited. The term IC50 denotes the point on the concentration scale where inhibition reaches its midpoint. Higher therefore signals weaker potency.

≈ marks a conversion by molar mass, not a printed value.

Assay [1] has as its system methicillin-resistant S. aureus (MRSA). Description: MIC determination against methicillin-resistant S. aureus (broth dilution, OD600). The following applies: for MIC: 24 h, 37 °C. The class given is cell-based, Staphylococcus aureus. The method, then: (§1) The antimicrobial activity of the rhenium tricarbonyl mononuclear complexes and their corresponding pinene-bipyridine ligands was determined against two S. aureus strain: methicillin-resistant S. aureus (MRSA 43300) and methicillin-sensitive S. aureus (MSSA 25923). These microorganisms are responsible for most nosocomial infections. […] Their mechanism of action is not yet fully understood, but we hypothesized that their positive charge allows them to interact more easily with biomolecules than neutral complexes, and/or that they more strongly interact with the negatively charged cellular membrane.
(§2) The antimicrobial activity of the complexes was evaluated against two strains: Staphylococcus aureus SA113 (methicillin-susceptible, MSSA) and S. aureus MecA R2954 (methicillin-resistant, MRSA). Briefly, each complex was initially dissolved in sterile DMSO at a concentration of 10 mM to create a stock solution. The solutions were diluted with Mueller–Hinton Broth (MHB) culture medium and added (serial dilution) to the wells of a 96-well plate at final concentrations ranging from 100 µM to 0.2 µM. Simultaneously, bacterial cultures grown the previous day in non-cation-adjusted MHB (1×) were used to prepare suspensions at 1 × 10^6 CFU/mL. An equal volume (50 µL) of these bacterial suspensions was added to each well containing the diluted complexes, resulting in final bacterial and compound concentrations of 5 × 10^5 CFU/mL and 100 µM to 0.2 µM, respectively. The plates were incubated at 37 °C for 24 h. Minimum inhibitory concentrations (MICs) were determined by measuring optical density at 600 nm (OD600). All experiments were performed in triplicate.
In general terms: Dilution methods test growth across graded concentrations, often in twofold steps.

Assay [2] concerns L929 mouse fibroblast cells. Briefly: Cell toxicity, MTT assay. The following applies: 24 h treatment. In kind it is cell-based. On the procedure:
The cytotoxicity of the complexes was evaluated using L929 mouse fibroblast cells cultured in DMEM supplemented with 10% (v/v) fetal bovine serum (FBS), 1% (v/v) penicillin/streptomycin, and L-glutamine. Cytotoxicity was assessed using the standard MTT assay. Briefly, cells were seeded into 96-well plates at a density of 3.75 × 10^4 cells/mL and incubated for 24 h. The complexes, initially dissolved in DMSO, were diluted with culture medium and added to the wells at final concentrations ranging from 100 µM to 0.2 µM. After 24 h of treatment, MTT solution (5 mg/mL in PBS) diluted in fresh medium was added to each well at 25% of the total volume and incubated for an additional 4 h. Formazan crystals formed by metabolically active cells were then solubilized in a 1:1 (v/v) DMSO:ethanol solution. Control wells included untreated cells (100% viability). Relative cell viability was calculated by comparing absorbance values to those of the untreated control.
A general note: Tetrazolium dyes change colour on reduction, which living cells bring about.

Assay [3] deals with methicillin-sensitive S. aureus (MSSA). Briefly: MIC determination against methicillin-sensitive S. aureus (broth dilution, OD600). In kind it is cell-based, Staphylococcus aureus. Conditions: 24 h, 37 °C. On the procedure: as §1, §2

As to `CC1(C)[C@H]2Cc3cc(-c4ccccn4)ncc3[C@@H]1C2` [4,5-pinbpy, (−)-4,5-pinene bipyridine], the MIC in assay [1] (Staphylococcus aureus, MRSA) amounted to 3.13 µM (≈ 0.784 µg/mL); in assay [3] (Staphylococcus aureus), 3.13 µM (≈ 0.784 µg/mL). In addition, the 50% inhibitory concentration (IC50) in assay [2] was in the range of 2.5 to 5 µM.
Regarding `CC1(C)[C@H]2Cc3nc(-c4ccccn4)ccc3[C@@H]1C2` [5,6-pinbpy, (−)-5,6-pinene bipyridine], the MIC in assay [1] (Staphylococcus aureus, MRSA) was found to be 3.13 µM (≈ 0.784 µg/mL); in assay [3] (Staphylococcus aureus), 3.13 µM (≈ 0.784 µg/mL). This compound gave an IC50 in assay [2] of 2.5 to 5 µM.
Regarding `N#CC(C#N)=NNc1cccc(Cl)c1` [CCCP], in assay [1] (S. aureus, concentration stated as 1× MIC), the “MIC of positive control” value stood at 12.5 µM.
Regarding [Re(CO)3(bpy)(Py)](OTf), the MIC in assay [1] (MRSA) and in assay [3] was 100 µM in each case.
For [Re(CO)3(bpy)Br], the MIC in assay [1] (MRSA) and in assay [3] was greater than 50 µM each time. Moreover, the “MIC higher than that of C2Br” value in assay [1] (MRSA, same core structure) is reported as roughly 10 fold.
